In patent US20230219986A1, “NOVEL AMINOPYRIMIDINE EGFR INHIBITOR” (QILU PHARMACEUTICAL CO., LTD., priority 2020, published 2023) one finds IC50 and GI50 data, which are given here for 24 molecules.

One test has as its target T1, wild-type EGFR (Homo sapiens, UniProt P00533).
T1 construct: purchased Signalchem
Description: Enzymology experiment in vitro (HTRF/FRET kinase activity), wild-type EGFR. The test is classed as biochemical. The settings on record: HTRF KinEASE-TK, read-out: EGFR (WT) IC50. Summed up:
(§1)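 Kinase reaction run 40 min at room temperature with peptide and ATP after a 10 min compound–enzyme preincubation. Phosphorylation read as HTRF signal after 1 h with Eu³⁺ antibody, XL665-streptavidin and EDTA (Cisbio KinEASE-TK).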
In general terms: TR-FRET usually uses a lanthanide donor and a delayed reading to cut background.

For test [1], the target named is T2, L858R/T790M/C797S triple mutant EGFR (Homo sapiens, UniProt P00533, C797S/L858R/T790M).
T2 construct: purchased Signalchem
Description: Enzymology experiment in vitro (HTRF/FRET kinase activity), L858R/T790M/C797S triple mutant EGFR. The test is classed as biochemical. The settings on record: HTRF KinEASE-TK, read-out: EGFR (L858R/T790M/C797S) IC50. Summed up: as §1

Test [2] concerns EGFR wild-type cell line A431. Description: Cell proliferation inhibition experiment (CellTiter-Glo), A431. The test is classed as cell-based. The settings on record: Homo sapiens, A-431, 72 h, A431 cells, Cell Titer-Glo, read-out: A431 EGFR WT IC50. Summed up: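 Luminescent CellTiter-Glo readout, 30 min at room temperature, after 72 h compound exposure at 37° C., 5% CO2 with 0.1% DMSO final. EGFR wild-type A431 cells were seeded at 800 per well and grown 24 h before dosing. IC50 derived from the dose-response.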
For orientation: Cellular ATP, detected with luciferase, serves as a proxy for viable cell number.

Test [3] has as its target Ba/F3 De119/T790M/C797S EGFR triple mutant cell line (Homo sapiens, UniProt P00533, T790M/C797S, cells depend on it, form not given). Description: Cell proliferation inhibition experiment (CellTiter-Glo), Ba/F3 De119/T790M/C797S. The test is classed as cell-based. The following applies: Ba/F3 Del19/T790M/C797S EGFR triple mutant cells, 72 hours, Cell Titer-Glo; read-out: Ba/F3 (Del19/T790M/C797S) IC50.

Test [4] has as its target Ba/F3 L858R/T790M/C797S EGFR triple mutant cell line (Homo sapiens, UniProt P00533, T790M/C797S/L858R, cells depend on it). Description: Cell proliferation inhibition experiment (CellTiter-Glo), Ba/F3 L858R/T790M/C797S. The class given is cell-based. The following applies: 72 hours, Cell Titer-Glo, read-out: Ba/F3 (L858R/T790M/C797S) IC50.

Molecules are shown by their SMILES.

Sequence of Ba/F3 L858R/T790M/C797S EGFR triple mutant cell line (P00533 whole entry T790M/C797S/L858R): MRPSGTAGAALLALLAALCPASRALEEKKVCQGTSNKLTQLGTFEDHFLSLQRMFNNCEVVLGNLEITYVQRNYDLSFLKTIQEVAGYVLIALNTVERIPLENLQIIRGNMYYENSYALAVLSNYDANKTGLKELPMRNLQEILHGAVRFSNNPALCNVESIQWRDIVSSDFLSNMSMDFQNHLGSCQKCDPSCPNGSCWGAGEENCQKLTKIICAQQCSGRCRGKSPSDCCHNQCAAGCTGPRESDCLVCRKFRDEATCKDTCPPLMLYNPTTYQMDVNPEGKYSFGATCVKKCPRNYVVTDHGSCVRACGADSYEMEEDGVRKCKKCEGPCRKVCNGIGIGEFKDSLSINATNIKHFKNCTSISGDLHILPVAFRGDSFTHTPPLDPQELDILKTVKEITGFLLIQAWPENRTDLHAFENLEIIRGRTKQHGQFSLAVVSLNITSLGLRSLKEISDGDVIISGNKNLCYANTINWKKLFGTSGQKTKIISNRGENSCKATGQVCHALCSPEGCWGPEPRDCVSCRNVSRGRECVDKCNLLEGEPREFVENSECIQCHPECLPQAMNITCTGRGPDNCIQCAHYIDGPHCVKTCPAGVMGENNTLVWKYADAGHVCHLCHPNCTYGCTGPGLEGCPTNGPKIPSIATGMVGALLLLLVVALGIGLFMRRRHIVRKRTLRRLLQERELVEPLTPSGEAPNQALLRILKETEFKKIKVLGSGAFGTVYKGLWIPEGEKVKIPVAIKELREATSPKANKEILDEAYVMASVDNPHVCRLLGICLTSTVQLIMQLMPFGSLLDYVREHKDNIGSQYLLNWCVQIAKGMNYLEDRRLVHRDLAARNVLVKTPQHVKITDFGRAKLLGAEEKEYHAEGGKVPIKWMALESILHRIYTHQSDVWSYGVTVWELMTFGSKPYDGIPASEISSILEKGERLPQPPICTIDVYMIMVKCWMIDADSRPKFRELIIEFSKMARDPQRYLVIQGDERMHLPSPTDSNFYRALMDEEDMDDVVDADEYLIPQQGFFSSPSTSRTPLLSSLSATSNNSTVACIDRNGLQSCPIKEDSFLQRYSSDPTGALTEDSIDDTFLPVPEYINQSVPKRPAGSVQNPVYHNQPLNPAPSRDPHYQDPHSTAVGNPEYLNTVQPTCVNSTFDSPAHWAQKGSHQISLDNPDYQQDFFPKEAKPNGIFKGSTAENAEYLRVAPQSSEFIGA
Sequence of Ba/F3 De119/T790M/C797S EGFR triple mutant cell line (P00533 with tags, fused parts or gaps DEL746-750/T790M/C797S, form open): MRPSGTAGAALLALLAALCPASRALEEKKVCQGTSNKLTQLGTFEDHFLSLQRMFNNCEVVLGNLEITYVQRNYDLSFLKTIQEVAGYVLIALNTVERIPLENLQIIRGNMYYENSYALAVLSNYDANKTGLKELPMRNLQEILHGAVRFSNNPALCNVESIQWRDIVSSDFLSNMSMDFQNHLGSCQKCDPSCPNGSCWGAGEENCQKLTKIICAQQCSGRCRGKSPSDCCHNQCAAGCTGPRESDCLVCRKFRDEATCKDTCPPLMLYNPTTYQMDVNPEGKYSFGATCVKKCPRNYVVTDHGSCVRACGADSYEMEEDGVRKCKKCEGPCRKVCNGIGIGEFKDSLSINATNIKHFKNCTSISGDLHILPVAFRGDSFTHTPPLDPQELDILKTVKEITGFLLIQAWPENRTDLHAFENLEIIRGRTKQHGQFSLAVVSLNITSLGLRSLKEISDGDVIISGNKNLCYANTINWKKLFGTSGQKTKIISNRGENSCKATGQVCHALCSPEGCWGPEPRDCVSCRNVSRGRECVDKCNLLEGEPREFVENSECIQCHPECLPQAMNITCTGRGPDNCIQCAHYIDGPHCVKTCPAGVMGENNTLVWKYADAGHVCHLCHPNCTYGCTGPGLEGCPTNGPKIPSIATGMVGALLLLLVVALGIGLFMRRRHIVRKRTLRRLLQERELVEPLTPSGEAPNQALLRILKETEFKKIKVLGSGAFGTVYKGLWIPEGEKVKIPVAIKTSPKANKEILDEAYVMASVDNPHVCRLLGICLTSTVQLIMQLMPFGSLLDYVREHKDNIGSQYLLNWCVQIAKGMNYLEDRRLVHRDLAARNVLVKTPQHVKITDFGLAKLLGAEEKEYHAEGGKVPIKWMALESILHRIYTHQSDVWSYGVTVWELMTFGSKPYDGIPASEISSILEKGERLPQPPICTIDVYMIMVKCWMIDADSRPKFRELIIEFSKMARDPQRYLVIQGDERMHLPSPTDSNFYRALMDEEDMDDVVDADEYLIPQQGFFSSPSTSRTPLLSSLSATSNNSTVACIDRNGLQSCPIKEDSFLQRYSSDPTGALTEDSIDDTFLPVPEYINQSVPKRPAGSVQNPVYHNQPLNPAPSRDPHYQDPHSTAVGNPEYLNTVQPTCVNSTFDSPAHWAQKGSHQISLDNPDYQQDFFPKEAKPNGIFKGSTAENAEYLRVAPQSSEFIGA
T2 sequence (P00533 25-1210 T790M/C797S/L858R): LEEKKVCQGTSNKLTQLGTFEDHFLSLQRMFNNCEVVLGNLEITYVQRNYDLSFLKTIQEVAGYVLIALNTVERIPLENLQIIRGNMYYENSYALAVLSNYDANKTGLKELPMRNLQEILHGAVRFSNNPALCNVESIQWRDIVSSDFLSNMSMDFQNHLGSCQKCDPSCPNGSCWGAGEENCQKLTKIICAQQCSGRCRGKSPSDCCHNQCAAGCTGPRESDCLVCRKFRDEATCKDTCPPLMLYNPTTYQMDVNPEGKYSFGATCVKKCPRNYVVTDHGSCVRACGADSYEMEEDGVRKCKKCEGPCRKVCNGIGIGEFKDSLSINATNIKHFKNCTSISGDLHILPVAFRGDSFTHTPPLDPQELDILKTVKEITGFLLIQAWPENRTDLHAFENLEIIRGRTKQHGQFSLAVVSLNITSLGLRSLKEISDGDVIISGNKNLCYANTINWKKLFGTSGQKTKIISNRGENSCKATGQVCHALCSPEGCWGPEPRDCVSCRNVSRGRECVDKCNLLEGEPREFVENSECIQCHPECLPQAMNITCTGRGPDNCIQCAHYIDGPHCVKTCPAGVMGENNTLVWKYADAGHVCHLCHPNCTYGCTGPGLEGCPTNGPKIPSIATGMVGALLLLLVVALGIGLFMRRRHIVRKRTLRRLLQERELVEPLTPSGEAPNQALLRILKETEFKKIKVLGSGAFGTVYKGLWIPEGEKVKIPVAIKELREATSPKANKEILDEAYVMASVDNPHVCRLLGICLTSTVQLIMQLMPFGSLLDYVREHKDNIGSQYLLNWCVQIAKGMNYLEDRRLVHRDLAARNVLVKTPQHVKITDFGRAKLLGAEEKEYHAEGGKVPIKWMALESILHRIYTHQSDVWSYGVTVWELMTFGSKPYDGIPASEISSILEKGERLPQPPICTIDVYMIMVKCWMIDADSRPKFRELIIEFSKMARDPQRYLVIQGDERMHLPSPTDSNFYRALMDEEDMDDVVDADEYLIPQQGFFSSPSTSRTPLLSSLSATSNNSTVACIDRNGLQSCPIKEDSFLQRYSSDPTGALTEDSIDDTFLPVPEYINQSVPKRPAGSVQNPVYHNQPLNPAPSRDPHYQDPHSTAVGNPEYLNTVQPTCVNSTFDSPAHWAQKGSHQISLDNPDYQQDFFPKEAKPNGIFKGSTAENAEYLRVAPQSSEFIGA
T1 sequence (P00533 25-1210): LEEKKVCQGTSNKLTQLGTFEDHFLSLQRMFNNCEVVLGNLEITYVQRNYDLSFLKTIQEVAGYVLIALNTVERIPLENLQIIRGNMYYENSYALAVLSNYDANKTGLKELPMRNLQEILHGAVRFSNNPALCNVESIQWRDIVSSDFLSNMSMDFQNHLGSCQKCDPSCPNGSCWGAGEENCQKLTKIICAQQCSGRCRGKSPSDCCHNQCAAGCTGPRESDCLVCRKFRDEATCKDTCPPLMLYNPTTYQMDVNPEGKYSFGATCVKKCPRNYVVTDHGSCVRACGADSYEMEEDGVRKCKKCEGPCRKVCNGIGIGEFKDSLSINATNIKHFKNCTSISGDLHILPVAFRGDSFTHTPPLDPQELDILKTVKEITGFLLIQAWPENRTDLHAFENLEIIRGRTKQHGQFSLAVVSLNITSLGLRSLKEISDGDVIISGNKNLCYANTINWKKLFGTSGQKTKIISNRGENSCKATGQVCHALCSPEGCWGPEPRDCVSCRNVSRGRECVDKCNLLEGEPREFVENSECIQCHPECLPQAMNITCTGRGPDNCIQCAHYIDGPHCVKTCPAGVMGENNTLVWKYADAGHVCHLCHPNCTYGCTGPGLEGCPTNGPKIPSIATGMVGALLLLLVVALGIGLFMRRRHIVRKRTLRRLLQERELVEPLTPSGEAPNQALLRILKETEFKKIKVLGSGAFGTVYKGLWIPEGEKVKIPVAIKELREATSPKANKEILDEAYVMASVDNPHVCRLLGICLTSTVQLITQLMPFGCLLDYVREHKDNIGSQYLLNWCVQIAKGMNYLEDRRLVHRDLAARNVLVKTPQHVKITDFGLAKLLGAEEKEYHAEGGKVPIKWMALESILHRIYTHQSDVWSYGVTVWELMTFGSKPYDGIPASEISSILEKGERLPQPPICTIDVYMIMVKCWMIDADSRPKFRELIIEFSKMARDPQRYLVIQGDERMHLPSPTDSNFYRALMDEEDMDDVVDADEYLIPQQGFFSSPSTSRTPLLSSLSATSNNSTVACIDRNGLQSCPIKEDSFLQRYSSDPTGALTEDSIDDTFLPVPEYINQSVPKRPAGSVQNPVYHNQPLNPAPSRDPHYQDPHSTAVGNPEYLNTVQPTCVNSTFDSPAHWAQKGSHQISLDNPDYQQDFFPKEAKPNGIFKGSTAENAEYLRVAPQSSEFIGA

With `COc1cc(N2CCOCC2)c(-c2ccn(C)n2)cc1Nc1ncc(Br)c(Nc2ccc3nccnc3c2P(C)(C)=O)n1` [compound 140], the IC50 on wild-type EGFR stood at 94.6 nM; in test [1], 5.44 nM; in test [2], 3670 nM. Moreover, the GI50 in test [3] was 29.8 nM; in test [4], 62 nM.

On to `[2H]C1([2H])OC([2H])([2H])C([2H])([2H])N(c2cc(OC)c(Nc3ncc(C)c(Nc4ccc5nccnc5c4P(C)(C)=O)n3)cc2-c2cnn(C)c2)C1([2H])[2H]` [compound 141], for which the IC50 at wild-type EGFR came out at 1.14 nM; in test [1], 0.18 nM; in test [2], 194 nM. Further, the values for the GI50 in test [3] and in test [4] were 2.26 nM and 5.16 nM, respectively.

As for `COc1cc(N2CCC(C)(O)CC2)c(-c2cnn(C)c2)cc1Nc1ncc(Br)c(Nc2ccc3nccnc3c2P(C)(C)=O)n1` [compound 142], the figures for the IC50 (on wild-type EGFR; in test [1]; in test [2]) were 1.16 nM, 0.25 nM and 196 nM, respectively. Besides, the results for the GI50 in test [3] and in test [4] were 0.34 nM and 2.89 nM, respectively.

On to `[2H]C([2H])([2H])N(c1cc(OC)c(Nc2ncc(C)c(Nc3ccc4nccnc4c3P(C)(C)=O)n2)cc1-c1cnn(C)c1)C([2H])([2H])[2H]` [compound 143], for which the figures for the IC50 (at wild-type EGFR; in test [1]; in test [2]) were 1.75 nM, 0.41 nM and 420 nM, respectively. The GI50 in test [3] was determined as 3.23 nM; in test [4] it was 10.2 nM.

On to `COc1cc(N2CCC3(CC2)CN(C)CCO3)c(-c2cnn(C)c2)cc1Nc1ncc(Br)c(Nc2ccc3nccnc3c2P(C)(C)=O)n1` [compound 144, (6-((5-bromo-2-((2-methoxy-5-(1-methyl-1H-pyrazol-4-yl)-4-(4-methyl-1-oxa-4,9-diazaspiro[5.5]undecan-9-yl)phenyl)amino)pyrimidin-4-yl)amino)quinoxalin-5-yl)dimethylphosphine oxide], for which the IC50 at wild-type EGFR turned out to be 2.77 nM; in test [1] it was 0.66 nM; in test [2] it was 84 nM. Moreover, the GI50 in test [3] stood at 0.35 nM; in test [4], 1.91 nM.

For `[2H]C([2H])([2H])N(c1cc(OC)c(Nc2ncc(Br)c(Nc3ccc4nccnc4c3P(C)(C)=O)n2)cc1-c1cnn(C)c1)C([2H])([2H])[2H]` [compound 145], the IC50 on wild-type EGFR turned out to be 3.48 nM; in test [1] it was 0.31 nM; in test [2], 203 nM. The GI50 in test [3] came out at 1.7 nM; in test [4] it was 2.41 nM.

Regarding `COc1cc(N2CCC3(CN(C)CCO3)C2)c(-c2cnn(C)c2)cc1Nc1ncc(Br)c(Nc2ccc3nccnc3c2P(C)(C)=O)n1` (stereo not drawn) [compound 146], the IC50 turned out to be 8.43 nM at wild-type EGFR, 0.38 nM in test [1] and 179 nM in test [2]. Also, the GI50 in test [3] was 1.44 nM; in test [4] it was 5.47 nM.

Regarding `COc1cc(N2CCOCC2)c(-c2cnn(C)c2)cc1Nc1ncc(Br)c(Nc2cc3c(cc2N(C)S(C)(=O)=O)CC3)n1` [compound 147, N-(4-((5-bromo-2-((2-methoxy-5-(1-methyl-1H-pyrazol-4-yl)-4-morpholinylphenyl)amino)pyrimidin-4-yl)amino)bicyclo[4.2.0]octa-1,3,5-trien-3-yl)-N-methylmethanesulfonamide], the IC50 on wild-type EGFR is 53 nM; in test [1] it was 1.16 nM; in test [2] it was 475 nM. Also, the GI50 in test [3] is 1.3 nM; in test [4], 2.93 nM.

Turning to `COc1cc(N2CCC3(CCN(CC(F)F)CC3)CC2)c(-c2cnn(C)c2)cc1Nc1ncc(Br)c(Nc2ccc3nccnc3c2P(C)(C)=O)n1` [compound 149], the IC50 on wild-type EGFR was 78.5 nM; in test [1] it was 3.36 nM; in test [2] it was 376 nM. The GI50 in test [3] was 1.62 nM; in test [4], 3.21 nM.

For `COc1cc(N2CCN(C3COC3)CC2)c(-c2cnn(C)c2)cc1Nc1ncc(Br)c(Nc2ccc3nccnc3c2P(C)(C)=O)n1` [compound 150, (6-((5-bromo-2-((2-methoxy-5-(1-methyl-1H-pyrazol-4-yl)-4-(4-(oxetan-3-yl)piperazin-1-yl)phenyl)amino)pyrimidin-4-yl)amino)quinoxalin-5-yl)dimethylphosphine oxide], the IC50 stood at 2.45 nM on wild-type EGFR, 0.29 nM in test [1] and 139 nM in test [2]. For the same molecule, the GI50 in test [3] stood at 1.57 nM; in test [4] it was 3.34 nM.

As to `COc1cc(N2CCC(OC(C)C)CC2)c(-c2cnn(C)c2)cc1Nc1ncc(Br)c(Nc2ccc3nccnc3c2P(C)(C)=O)n1` [compound 151], the IC50 stood at 38.2 nM at wild-type EGFR, 2.2 nM in test [1] and 318 nM in test [2]. In addition, the GI50 was determined as 1.84 nM in test [3] and 7.47 nM in test [4].

As for `COC[C@H]1CN(c2cc(OC)c(Nc3ncc(Br)c(Nc4ccc5nccnc5c4P(C)(C)=O)n3)cc2-c2cnn(C)c2)CCO1` [compound 152], the IC50 on wild-type EGFR was found to be 4.24 nM; in test [1], 0.35 nM; in test [2], 133 nM. In addition, the GI50 in test [3] came out at 1.06 nM; in test [4], 4.59 nM.

On to `COc1cc(N2CCN(C)C(CF)C2)c(-c2cnn(C)c2)cc1Nc1ncc(Br)c(Nc2ccc3nccnc3c2P(C)(C)=O)n1` (stereo not drawn) [compound 153], for which the results for the IC50 (on wild-type EGFR; in test [1]; in test [2]) were 3.02 nM, 0.22 nM and 61.9 nM, respectively. Moreover, the GI50 came out at 1.03 nM in test [3] and 2.89 nM in test [4].

Regarding `COc1cc(NC(C)C(F)(F)F)c(-c2cnn(C)c2)cc1Nc1ncc(Br)c(Nc2ccc3nccnc3c2P(C)(C)=O)n1` (stereo not drawn) [compound 154], the results for the IC50 (on wild-type EGFR; in test [1]; in test [2]) were 36.9 nM, 0.86 nM and 469 nM, respectively. In addition, the GI50 in test [3] worked out at 5.26 nM; in test [4], 15.4 nM.

On to `COc1cc(N2CCC(OCC3CC3)CC2)c(-c2cnn(C)c2)cc1Nc1ncc(Br)c(Nc2ccc3nccnc3c2P(C)(C)=O)n1` [compound 156], for which the IC50 is 33.5 nM on wild-type EGFR, 3.81 nM in test [1] and 372 nM in test [2]. The GI50 in test [3] was determined as 1.05 nM; in test [4] it was 7.29 nM.

With `COc1cc(N2CCN(CC3CC3)CC2)c(-c2cnn(C)c2)cc1Nc1ncc(Br)c(Nc2ccc3nccnc3c2P(C)(C)=O)n1` [compound 157], the IC50 at wild-type EGFR is 3.6 nM; in test [1], 0.33 nM; in test [2], 49.4 nM. Also, the GI50 is 1.28 nM in test [3] and 7.05 nM in test [4].

`COc1cc(N2CCC(N3CCN(C)CC3)CC2)c(-c2cnn(C)c2)cc1Nc1ncc(Br)c(Nc2cc3c(cc2N(C)S(C)(=O)=O)CC3)n1` [compound 158]: the IC50 came out at 2.48 nM at wild-type EGFR, 0.81 nM in test [1] and 166 nM in test [2]. The GI50 in test [3] stood at 3.28 nM; in test [4] it was 6.76 nM.

Take `COc1cc(N2CCC(N3CC(F)C3)CC2)c(-c2cnn(C)c2)cc1Nc1ncc(Br)c(Nc2ccc3nccnc3c2P(C)(C)=O)n1` [compound 159]: the IC50 was found to be 1.54 nM at wild-type EGFR, 0.7 nM in test [1] and 114 nM in test [2]. Further, the GI50 in test [3] came to 0.93 nM; in test [4] it was 4.11 nM.

As for `COc1cc(N2CCOCC2)c(-c2cnn(C)c2)cc1Nc1ncc(Br)c(Nc2ccc3ncccc3c2P(C)(C)=O)n1` [compound 160], the IC50 is 2.32 nM on wild-type EGFR, 0.26 nM in test [1] and 208 nM in test [2]. For the same molecule, the figures for the GI50 in test [3] and in test [4] were 1.56 nM and 9.04 nM, respectively.

For the molecule `COc1cc(N2CCN3CCOCC3C2)c(-c2cnn(C)c2)cc1Nc1ncc(Br)c(Nc2ccc3nccnc3c2P(C)(C)=O)n1` (stereo not drawn) [compound 161], the results for the IC50 (at wild-type EGFR; in test [1]; in test [2]) were 2.71 nM, 0.39 nM and 154 nM, respectively. Besides, the figures for the GI50 in test [3] and in test [4] were 2.36 nM and 6.39 nM, respectively.

On to `COCC1CCCN(c2cc(OC)c(Nc3ncc(Br)c(Nc4ccc5nccnc5c4P(C)(C)=O)n3)cc2-c2cnn(C)c2)C1` (stereo not drawn) [compound 162], for which the results for the IC50 (on wild-type EGFR; in test [1]; in test [2]) were 20.6 nM, 2.28 nM and 518 nM, respectively. Besides, the values for the GI50 in test [3] and in test [4] were 6.2 nM and 18 nM, respectively.

For `COc1cc(N2CCC(N3CCO[C@H](C)C3)CC2)c(-c2cnn(C)c2)cc1Nc1ncc(Br)c(Nc2ccc3nccnc3c2P(C)(C)=O)n1` [compound 163], the IC50 at wild-type EGFR was 1.89 nM; in test [1] it was 0.28 nM; in test [2] it was 71.8 nM. Moreover, the GI50 in test [3] was determined as 0.62 nM; in test [4], 1.97 nM.

`COc1cc(N2CCN(C(C)C)C(CF)C2)c(-c2cnn(C)c2)cc1Nc1ncc(Br)c(Nc2ccc3nccnc3c2P(C)(C)=O)n1` (stereo not drawn) [compound 164]: the IC50 on wild-type EGFR is 5.3 nM; in test [1], 0.73 nM; in test [2], 195 nM. Besides, the GI50 in test [3] was 3.22 nM; in test [4], 8.26 nM.

Take `COc1cc(N2CCC(N3CCO[C@@H](C)C3)CC2)c(-c2cnn(C)c2)cc1Nc1ncc(Br)c(Nc2ccc3nccnc3c2P(C)(C)=O)n1` [compound 165]: the figures for the IC50 (on wild-type EGFR; in test [1]; in test [2]) were 1.36 nM, 0.69 nM and 70.2 nM, respectively. Also, the GI50 in test [3] is 0.8 nM; in test [4] it was 2.62 nM.
